According to US12209144B2, “Cyclic peptides as proprotein convertase subtilisin/kexin type 9 (PCSK9) inhibitors for the treatment of metabolic disorders” (Novartis AG, priority 2018, dated 2025):
pIC50: −log10 of the molar value. Bridge positions count the residues as written; N and C are the ends. Square brackets hold non-standard residues; d marks the D form. Peptide text beside a SMILES is read from it. Phe(4-CF3) = N[C@@H](Cc1ccc(C(F)(F)F)cc1)C(=O)O; Bip = N[C@@H](Cc1ccc(-c2ccccc2)cc1)C(=O)O; NMeF = CN[C@@H](Cc1ccccc1)C(=O)O; NMeE = CN[C@@H](CCC(=O)O)C(=O)O; NMeA = CN[C@@H](C)C(=O)O

Each compound was assayed against human PCSK9 (Homo sapiens, UniProt Q8NBP7) (assay: PCSK9 ligand binding assay (TR-FRET): interference with binding of human PCSK9 to human LDLR). Conditions: PCSK9 FRET assay, efficacy (Amax); 0% = DMSO, 100% = 1 uM unlabeled human PCSK9.
Sequence of human PCSK9 (Q8NBP7 153-692): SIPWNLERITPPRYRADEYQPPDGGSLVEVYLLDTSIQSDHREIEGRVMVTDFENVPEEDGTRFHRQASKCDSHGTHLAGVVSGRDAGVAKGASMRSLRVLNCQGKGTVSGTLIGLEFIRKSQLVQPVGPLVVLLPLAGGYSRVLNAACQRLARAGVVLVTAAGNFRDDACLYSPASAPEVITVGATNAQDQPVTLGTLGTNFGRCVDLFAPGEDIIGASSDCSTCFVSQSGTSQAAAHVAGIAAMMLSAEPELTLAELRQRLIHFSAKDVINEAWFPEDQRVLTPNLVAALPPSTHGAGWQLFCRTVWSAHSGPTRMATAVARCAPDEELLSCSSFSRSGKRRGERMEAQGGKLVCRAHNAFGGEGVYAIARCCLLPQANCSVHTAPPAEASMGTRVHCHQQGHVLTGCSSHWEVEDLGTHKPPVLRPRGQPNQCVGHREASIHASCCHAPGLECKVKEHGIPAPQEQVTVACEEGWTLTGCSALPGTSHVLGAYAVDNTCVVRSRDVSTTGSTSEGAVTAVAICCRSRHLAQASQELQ
Sequence of human PCSK9 (Q8NBP7 31-152 partner limits assumed): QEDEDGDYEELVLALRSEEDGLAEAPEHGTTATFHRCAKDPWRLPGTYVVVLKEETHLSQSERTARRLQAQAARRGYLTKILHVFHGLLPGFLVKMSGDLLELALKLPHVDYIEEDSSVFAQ
Procedure: The activity of cyclic polypeptides according to the disclosure as PCSK9 can be assessed using a time resolved fluorescence resonance energy transfer (TR-FRET) assay. This time resolved fluorescence resonance energy transfer (TR-FRET) assay measures the ability of a cyclic polypeptides of the disclosure to interfere with the binding of human PCSK9 to human LDLR, providing measures of both potency (IC50) and efficacy (Amax).
Solutions of varying concentrations are prepared by diluting a cyclic polypeptide of the disclosure in dimethylsulfoxide (DMSO) and the resulting solutions are pipetted into a plate. DMSO is used as a negative control. An intermediate plate is prepared in by transferring a known amount of each polypeptide solution and of the control from the compound plate into a corresponding well containing assay buffer and mixing thoroughly. A third plate is then prepared to be used for the assay by adding Human PCSK9 Alexa Fluor 647, followed by a known amount of each solution from the intermediate plate. Unlabeled human PCSK9 in assay buffer containing DMSO is used as a positive control for the assay. Following incubation, Human LDLR extracellular domain-Europium Kryptate is added to each well of the assay plate and the resulting mixture is incubated for an additional period of time. The TR-FRET signal is measured and the FRET ratio (FRET/Europium) is used to calculate the IC50 and Amax of the cyclic polypeptides.
The PCSK9 binding of the cyclic polypeptides of the disclosure were measured using a time resolved fluorescence resonance energy transfer (TR-FRET) assay. This time resolved fluorescence resonance energy transfer (TR-FRET) assay measures the ability of a cyclic polypeptide of the disclosure to interfere with the binding of human PCSK9 to human LDLR, providing measures of both potency (IC50) and efficacy (Amax).
• Human PCSK9 • Human PCSK9 Alexa Fluor 647 • Human LDLR extracellular domain-Europium Kryptate • Proxi plate-low volume assay plate (PerkinElmer #6008280) • Greiner V-bottom (Greiner BioOne #781280) • Assay Buffer • 20 mM HEPES, pH 7.5 • 150 mM NaCl • 1 mM CaCl2 • 0.01% v/v Tween20 • 0.01% w/v BSA
A master compound plate was prepared in a Greiner V bottom plate by diluting cyclic polypeptides of the disclosure in dimethylsulfoxide to the correct concentration for the desired top concentration based on the desired final concentration: for a 30 uM final concentration the master plate concentration is 1.5 mM (68 uL DMSO+12 uL 10 mM of a cyclic polypeptide of the disclosure), for a 10 uM final concentration the master plate concentration is 0.5 mM (76 uL DMSO+4 uL 10 mM of a cyclic polypeptide of the disclosure), for a 3 uM final concentration the master plate concentration is 150 uM (69 uL DMSO+1 uL 10 mM a cyclic peptide of the disclosure). These solutions were pipetted into columns 1 and 11 of the compound plate. Threefold serial dilutions were generated in columns 2-10 and 12-20 of the compound plate by transferring 10 uL into 20 μL of DMSO. Columns 21 and 22 of the compound plate were negative controls containing DMSO alone.
An intermediate plate was generated in a Greiner V bottom plate by transferring 8 uL from each well of the master plate into a corresponding well containing 92 μL of assay buffer and mixing thoroughly.
A Proxi plate-low volume assay plate was used for the assay. To all wells of the plate was added 10 μL of 16 nM Human PCSK9 Alexa Fluor 647, followed by 5 uL from the intermediate plate. […] Following a 30 minute incubation, 5 μL of 4 nM Human LDLR extracellular domain-Europium Kryptate was added and the mixture was incubated for an additional 2 hours.
The TR-FRET signal was measured on an EnVision or PheraStar instrument with a […] delay, 330 nm excitation and 665 nm emission (FRET), and 330 nm excitation and 615 nm (Europium). The FRET ratio (FRET/Europium) was used for calculations. […]

Compound	Maximum % inhibition [%]
CC(C)[C@@H]1NC(=O)[C@H](Cc2ccccc2)NC(=O)CSC[C@@H](C(=O)NCC(N)=O)NC(=O)[C@@H]2CCCN2C(=O)[C@H](CO)NC(=O)[C@H](CC(N)=O)NC(=O)[C@H](CCC(=O)O)N(C)C(=O)[C@H](Cc2ccc(-c3ccccc3)cc2)NC(=O)[C@H](Cc2ccccc2)N(C)C(=O)[C@H](CO)NC(=O)[C@H]([C@@H](C)O)NC(=O)[C@H]([C@@H](C)O)NC(=O)[C@H](CC(=O)O)NC1=O [Example 1-1] ({CH2CO}-FVDTTS[NMeF][Bip][NMeE]NSPCG-NH2; thioether N-13)	65
CC(C)[C@@H]1NC(=O)[C@H](Cc2ccccc2)NC(=O)CSC[C@@H](C(=O)NCC(N)=O)NC(=O)[C@@H]2CCCN2C(=O)[C@H](CCCNC(=N)N)NC(=O)[C@H](CC(=O)O)NC(=O)[C@H](C)N(C)C(=O)[C@H](Cc2ccc(-c3ccccc3)cc2)NC(=O)[C@H](C)N(C)C(=O)[C@H](Cc2ccc(-c3ccccc3)cc2)NC(=O)[C@H]([C@@H](C)O)NC(=O)[C@H]([C@@H](C)O)NC(=O)[C@H](CO)NC1=O [Example 1-2, Ac*-F-V-S-T-T-B-(N-Me)A-B-(N-Me)A-D-R-P-C*-G-NH2]	41
CC(C)[C@@H]1NC(=O)[C@H](Cc2ccccc2)NC(=O)CSC[C@@H](C(=O)NCC(N)=O)NC(=O)[C@@H]2CCCN2C(=O)[C@H](CO)NC(=O)[C@H](CC(N)=O)NC(=O)[C@H](C)N(C)C(=O)[C@H](Cc2ccc(-c3ccccc3)cc2)NC(=O)[C@H](Cc2ccccc2)N(C)C(=O)[C@H](CO)NC(=O)[C@H]([C@@H](C)O)NC(=O)[C@H]([C@@H](C)O)NC(=O)[C@H](CC(=O)O)NC1=O [Example 1-3, Ac*-F-V-D-T-T-S-(N-Me)F-B-(N-Me)A-N-S-P-C*-G-NH2] ({CH2CO}-FVDTTS[NMeF][Bip][NMeA]NSPCG-NH2; thioether N-13)	55
CC(C)[C@@H]1NC(=O)[C@H](Cc2ccccc2)NC(=O)CSC[C@@H](C(=O)NCC(N)=O)NC(=O)[C@@H]2CCCN2C(=O)[C@H](Cc2cnc[nH]2)NC(=O)[C@H](CC(N)=O)NC(=O)[C@H](C)N(C)C(=O)[C@H](Cc2ccc(-c3ccccc3)cc2)NC(=O)[C@H](C)N(C)C(=O)[C@H](Cc2ccc(O)cc2)NC(=O)[C@H]([C@@H](C)O)NC(=O)[C@H](CO)NC(=O)[C@H](CC(=O)O)NC1=O [Example 1-4, Ac*-F-V-D-S-T-Y-(N-Me)A-B-(N-Me)A-N-H-P-C*-G-NH2] ({CH2CO}-FVDSTY[NMeA][Bip][NMeA]NHPCG-NH2; thioether N-13)	60
CC(C)[C@@H]1NC(=O)[C@H](Cc2ccccc2)NC(=O)CSC[C@@H](C(=O)NCC(N)=O)NC(=O)[C@@H]2CCCN2C(=O)[C@H](CO)NC(=O)[C@H](CCC(=O)O)NC(=O)[C@H](C)N(C)C(=O)[C@H](Cc2ccc(-c3ccccc3)cc2)NC(=O)[C@H](Cc2ccccc2)N(C)C(=O)[C@H](CO)NC(=O)[C@H]([C@@H](C)O)NC(=O)[C@H]([C@@H](C)O)NC(=O)[C@H](CC(=O)O)NC1=O [Example 1-5, Ac*-F-V-D-T-T-S-(N-Me)F-B-(N-Me)A-E-S-P-C*-G-NH2] ({CH2CO}-FVDTTS[NMeF][Bip][NMeA]ESPCG-NH2; thioether N-13)	95
CC(C)[C@@H]1NC(=O)[C@H](Cc2ccccc2)NC(=O)CSC[C@@H](C(=O)NCC(N)=O)NC(=O)[C@@H]2CCCN2C(=O)[C@H](CO)NC(=O)[C@H](CCC(=O)O)NC(=O)[C@H](C)N(C)C(=O)[C@H](Cc2ccc(C(F)(F)F)cc2)NC(=O)[C@H](Cc2ccccc2)N(C)C(=O)[C@H](CO)NC(=O)[C@H]([C@@H](C)O)NC(=O)[C@H]([C@@H](C)O)NC(=O)[C@H](CC(=O)O)NC1=O [Example 1-6, Ac*-F-V-D-T-T-S-(N-Me)F-(p-CF3)F-(N-Me)A-E-S-P-C*-G-NH2] ({CH2CO}-FVDTTS[NMeF][Phe(4-CF3)][NMeA]ESPCG-NH2; thioether N-13)	97
CC(C)[C@@H]1NC(=O)[C@H](Cc2ccccc2)NC(=O)CSC[C@@H](C(=O)NCC(N)=O)NC(=O)[C@@H]2CCCN2C(=O)[C@H](CO)NC(=O)[C@H](CCCCN)NC(=O)[C@H](C)N(C)C(=O)[C@H](Cc2ccc(-c3ccccc3)cc2)NC(=O)[C@H](C)N(C)C(=O)[C@H](CO)NC(=O)[C@H]([C@@H](C)O)NC(=O)[C@H]([C@@H](C)O)NC(=O)[C@H](CC(=O)O)NC1=O [Example 1-7, Ac*-F-V-D-T-T-S-(N-Me)A-B-(N-Me)A-K-S-P-C*-G-NH2] ({CH2CO}-FVDTTS[NMeA][Bip][NMeA]KSPCG-NH2; thioether N-13)	60
CC(C)[C@@H]1NC(=O)[C@H](Cc2ccccc2)NC(=O)CSC[C@@H](C(=O)NCC(N)=O)NC(=O)[C@@H]2CCCN2C(=O)[C@H](CO)NC(=O)[C@H](CC(=O)O)NC(=O)[C@H](C)N(C)C(=O)[C@H](Cc2ccc(-c3ccccc3)cc2)NC(=O)[C@H](C)N(C)C(=O)[C@H](Cc2ccc(-c3ccccc3)cc2)NC(=O)[C@H]([C@@H](C)O)NC(=O)[C@H]([C@@H](C)O)NC(=O)[C@H](CO)NC1=O [Example 1-8, Ac*-F-V-S-T-T-B-(N-Me)A-B-(N-Me)A-D-S-P-C*-G-NH2] ({CH2CO}-FVSTT[Bip][NMeA][Bip][NMeA]DSPCG-NH2; thioether N-13)	58
CC(C)[C@@H]1NC(=O)[C@H](Cc2ccccc2)NC(=O)CSC[C@@H](C(=O)NCC(N)=O)NC(=O)[C@@H]2CCCN2C(=O)[C@H](CCCNC(=N)N)NC(=O)[C@H](CC(=O)O)NC(=O)[C@H](C)N(C)C(=O)[C@H](Cc2ccc(-c3ccccc3)cc2)NC(=O)[C@H](Cc2ccccc2)N(C)C(=O)[C@H](CO)NC(=O)[C@H]([C@@H](C)O)NC(=O)[C@H]([C@@H](C)O)NC(=O)[C@H](CO)NC1=O [Example 1-9, Ac*-F-V-S-T-T-S-(N-Me)F-B-(N-Me)A-D-R-P-C*-G-NH2] ({CH2CO}-FVSTTS[NMeF][Bip][NMeA]DRPCG-NH2; thioether N-13)	35
CC(C)[C@@H]1NC(=O)[C@H](Cc2ccccc2)NC(=O)CSC[C@@H](C(=O)NCC(N)=O)NC(=O)[C@@H]2CCCN2C(=O)[C@H](CO)NC(=O)[C@H](CCC(=O)O)NC(=O)[C@H](C)N(C)C(=O)[C@H](Cc2ccc(-c3ccccc3)cc2)NC(=O)[C@H](C)N(C)C(=O)[C@H](Cc2ccc(-c3ccccc3)cc2)NC(=O)[C@H]([C@@H](C)O)NC(=O)[C@H]([C@@H](C)O)NC(=O)[C@H](CC(=O)O)NC1=O [Example 1-10, Ac*-F-V-D-T-T-B-(N-Me)A-B-(N-Me)A-E-S-P-C*-G-NH2] ({CH2CO}-FVDTT[Bip][NMeA][Bip][NMeA]ESPCG-NH2; thioether N-13)	90
CC(C)[C@@H]1NC(=O)[C@H](Cc2ccccc2)NC(=O)CSC[C@@H](C(=O)NCC(N)=O)NC(=O)[C@@H]2CCCN2C(=O)[C@H](CCCNC(=N)N)NC(=O)[C@H](CCC(=O)O)NC(=O)[C@H](C)N(C)C(=O)[C@H](Cc2ccc(C(F)(F)F)cc2)NC(=O)[C@H](C)N(C)C(=O)[C@H](Cc2ccc(C(F)(F)F)cc2)NC(=O)[C@H]([C@@H](C)O)NC(=O)[C@H]([C@@H](C)O)NC(=O)[C@H](CO)NC1=O [Example 1-11, Ac*-F-V-S-T-T-(p-CF3)F-(N-Me)A-(p-CF3)F-(N-Me)A-E-R-P-C*-G-NH2] ({CH2CO}-FVSTT[Phe(4-CF3)][NMeA][Phe(4-CF3)][NMeA]ERPCG-NH2; thioether N-13)	55

Same assay, conditions: TR-FRET; Human PCSK9 Alexa Fluor 647 and Human LDLR extracellular domain-Europium Kryptate

Compound	pIC50
CC(C)[C@@H]1NC(=O)[C@H](Cc2ccccc2)NC(=O)CSC[C@@H](C(=O)NCC(N)=O)NC(=O)[C@@H]2CCCN2C(=O)[C@H](CO)NC(=O)[C@H](CCC(=O)O)NC(=O)[C@H](C)N(C)C(=O)[C@H](Cc2ccc(C(F)(F)F)cc2)NC(=O)[C@H](Cc2ccccc2)N(C)C(=O)[C@H](CO)NC(=O)[C@H]([C@@H](C)O)NC(=O)[C@H]([C@@H](C)O)NC(=O)[C@H](CC(=O)O)NC1=O [Example 1-6, Ac*-F-V-D-T-T-S-(N-Me)F-(p-CF3)F-(N-Me)A-E-S-P-C*-G-NH2] ({CH2CO}-FVDTTS[NMeF][Phe(4-CF3)][NMeA]ESPCG-NH2; thioether N-13)	7.92
CC(C)[C@@H]1NC(=O)[C@H](Cc2ccccc2)NC(=O)CSC[C@@H](C(=O)NCC(N)=O)NC(=O)[C@@H]2CCCN2C(=O)[C@H](CO)NC(=O)[C@H](CCCCN)NC(=O)[C@H](C)N(C)C(=O)[C@H](Cc2ccc(-c3ccccc3)cc2)NC(=O)[C@H](C)N(C)C(=O)[C@H](CO)NC(=O)[C@H]([C@@H](C)O)NC(=O)[C@H]([C@@H](C)O)NC(=O)[C@H](CC(=O)O)NC1=O [Example 1-7, Ac*-F-V-D-T-T-S-(N-Me)A-B-(N-Me)A-K-S-P-C*-G-NH2] ({CH2CO}-FVDTTS[NMeA][Bip][NMeA]KSPCG-NH2; thioether N-13)	6.39
